Data published in PMC10482975 (Nature Communications, 2023).
Numbering of substitutions follows the chain as printed.

Experiments:
[1] = target: T1, M2 mAChR WT (Homo sapiens, UniProt P08172); experiment: [3H]-NMS radioligand dissociation binding, M2 mAChR WT
T1 construct: expressed in transfected cells
T1 sequence (P08172 1-466): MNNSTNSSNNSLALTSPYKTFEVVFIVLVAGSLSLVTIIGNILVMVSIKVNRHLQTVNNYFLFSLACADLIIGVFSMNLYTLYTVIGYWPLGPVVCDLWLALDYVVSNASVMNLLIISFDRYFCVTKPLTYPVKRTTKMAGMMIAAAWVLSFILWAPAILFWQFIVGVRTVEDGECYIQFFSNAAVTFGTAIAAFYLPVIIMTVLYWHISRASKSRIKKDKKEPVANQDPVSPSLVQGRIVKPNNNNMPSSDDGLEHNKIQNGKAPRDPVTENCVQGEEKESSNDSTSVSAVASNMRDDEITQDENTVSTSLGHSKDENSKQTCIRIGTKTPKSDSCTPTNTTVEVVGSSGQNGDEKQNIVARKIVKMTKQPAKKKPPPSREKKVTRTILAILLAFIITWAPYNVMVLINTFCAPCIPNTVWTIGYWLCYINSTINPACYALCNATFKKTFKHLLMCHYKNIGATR
Experimental: (§1) Flp-In Chinese hamster ovary (CHO) (Thermo Fisher Scientific) cells stably expressing mAChR WTs or mutant constructs were cultured in Dulbecco’s modified Eagle’s medium (DMEM, Invitrogen) containing 5% foetal bovine serum (FBS; ThermoTrace) and […] of hygromycin (Roche) in a humidified incubator (37 °C, 5% CO2). Upon reaching confluence, media was removed, cells were washed with phosphate buffered saline (PBS) and harvested from tissue culture flasks using versene (PBS with 0.2 g EDTA). Cells were then pelleted through centrifugation at 350 × g for three minutes followed by resuspension in DMEM + 5% FBS. Cells were then either plated for an assay or reseeded into a tissue culture flask.

[2] = target: T2, M4 mAChR F186A (Homo sapiens, UniProt P08173, F186A); experiment: [3H]-NMS radioligand dissociation binding, M4 mAChR F186A; conditions: for [3H]-NMS binding remaining (0 min = 100), MEAN: M4 F186A mAChR
T2 construct: expressed in transfected cells
T2 sequence (P08173 1-479 F186A): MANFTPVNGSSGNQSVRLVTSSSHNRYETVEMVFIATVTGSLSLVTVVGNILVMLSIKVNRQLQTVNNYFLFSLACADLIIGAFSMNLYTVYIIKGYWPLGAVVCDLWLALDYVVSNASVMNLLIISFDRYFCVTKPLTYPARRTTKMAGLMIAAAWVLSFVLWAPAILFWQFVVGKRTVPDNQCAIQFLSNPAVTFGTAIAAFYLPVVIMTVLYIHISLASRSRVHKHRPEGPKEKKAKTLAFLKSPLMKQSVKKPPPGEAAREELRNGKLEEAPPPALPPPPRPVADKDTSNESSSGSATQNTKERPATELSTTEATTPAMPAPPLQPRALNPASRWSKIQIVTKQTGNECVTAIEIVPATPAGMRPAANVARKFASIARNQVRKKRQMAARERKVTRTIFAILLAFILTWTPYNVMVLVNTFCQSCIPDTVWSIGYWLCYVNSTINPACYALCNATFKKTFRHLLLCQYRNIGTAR
Experimental: as §1

[3] = target: T3, M5 mAChR WT (Homo sapiens, UniProt P08912); experiment: [3H]-NMS radioligand dissociation binding, M5 mAChR WT
T3 construct: expressed in transfected cells
T3 sequence (P08912 1-532): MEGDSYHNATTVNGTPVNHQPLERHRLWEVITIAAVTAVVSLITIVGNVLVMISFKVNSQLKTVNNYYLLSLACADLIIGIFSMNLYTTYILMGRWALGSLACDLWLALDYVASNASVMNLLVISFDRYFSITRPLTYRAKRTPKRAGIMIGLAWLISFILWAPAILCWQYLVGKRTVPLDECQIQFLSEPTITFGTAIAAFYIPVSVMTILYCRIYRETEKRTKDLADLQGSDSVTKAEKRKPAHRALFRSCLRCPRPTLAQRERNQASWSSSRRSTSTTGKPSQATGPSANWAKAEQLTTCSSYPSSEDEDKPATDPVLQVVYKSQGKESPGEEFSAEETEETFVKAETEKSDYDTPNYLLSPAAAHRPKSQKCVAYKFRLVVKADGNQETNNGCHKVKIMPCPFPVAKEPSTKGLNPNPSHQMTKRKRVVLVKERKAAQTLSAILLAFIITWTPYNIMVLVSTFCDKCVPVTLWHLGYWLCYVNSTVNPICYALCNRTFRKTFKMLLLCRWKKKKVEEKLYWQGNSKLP
Experimental: as §1

[4] = target: T4, M4 mAChR WT (Homo sapiens, UniProt P08173); experiment: [3H]-NMS radioligand dissociation binding, M4 mAChR WT; conditions: for [3H]-NMS binding remaining (0 min = 100), MEAN: M4 mAChR
T4 construct: expressed in transfected cells
T4 sequence (P08173 1-479): T2 sequence (P08173 1-479 F186A) with A186F
Experimental: as §1

CCCCCCOc1nsnc1C1=CCCN(C)C1 [xanomeline]
allosteric effect on [3H]-NMS dissociation (in words) [1]: more pronounced | [3H]-NMS binding remaining (0 min = 100), MEAN ([2]; 10uM Atr + 30 μM Xano, 30 min): 78.1603 | [3H]-NMS binding remaining (0 min = 100), MEAN ([2]; 10uM Atr + 30 μM Xano, 90 min): 48.8248 | [3H]-NMS binding remaining (0 min = 100), MEAN ([2]; 10uM Atr + 30 μM Xano, 180 min): 47.3729 | [3H]-NMS binding remaining (0 min = 100), MEAN ([2]; 10uM Atr + 100uM Xano, 30 min): 72.0364 | [3H]-NMS binding remaining (0 min = 100), MEAN ([2]; 10uM Atr + 100uM Xano, 90 min): 60.4086 | [3H]-NMS binding remaining (0 min = 100), MEAN ([2]; 10uM Atr + 100uM Xano, 180 min): 46.0676 | [3H]-NMS binding remaining (0 min = 100), MEAN ([2]; 10uM Atr + 100uM Xano, 300 min): 23.3758 | effect on [3H]-NMS dissociation (in words) ([2]; M4 mAChR F186A mutant): no longer retarded | allosteric effect on [3H]-NMS dissociation (in words) [3]: modest | [3H]-NMS binding remaining (0 min = 100), MEAN ([3]; 10uM Atr + 10 μM Xano, 10 min): 90.3151 | [3H]-NMS binding remaining (0 min = 100), MEAN ([3]; 10uM Atr + 10 μM Xano, 15 min): 91.7238 | [3H]-NMS binding remaining (0 min = 100), MEAN ([3]; 10uM Atr + 10 μM Xano, 30 min): 85.9775 | [3H]-NMS binding remaining (0 min = 100), MEAN ([3]; 10uM Atr + 10 μM Xano, 90 min): 67.8458 | [3H]-NMS binding remaining (0 min = 100), MEAN ([3]; 10uM Atr + 10 μM Xano, 120 min): 51.752 | [3H]-NMS binding remaining (0 min = 100), MEAN ([3]; 10uM Atr + 10 μM Xano, 210 min): 35.86 | [3H]-NMS binding remaining (0 min = 100), MEAN ([3]; 10uM Atr + 30 μM Xano, 10 min): 92.3387 | [3H]-NMS binding remaining (0 min = 100), MEAN ([3]; 10uM Atr + 30 μM Xano, 15 min): 85.7238 | [3H]-NMS binding remaining (0 min = 100), MEAN ([3]; 10uM Atr + 30 μM Xano, 30 min): 100.331 | [3H]-NMS binding remaining (0 min = 100), MEAN ([3]; 10uM Atr + 30 μM Xano, 90 min): 61.0136 | [3H]-NMS binding remaining (0 min = 100), MEAN ([3]; 10uM Atr + 30 μM Xano, 120 min): 51.9105 | [3H]-NMS binding remaining (0 min = 100), MEAN ([3]; 10uM Atr + 30 μM Xano, 210 min): 31.039 | [3H]-NMS binding remaining (0 min = 100), MEAN ([3]; 10uM Atr + 100uM Xano, 10 min): 94.3264 | [3H]-NMS binding remaining (0 min = 100), MEAN ([3]; 10uM Atr + 100uM Xano, 15 min): 90.317 | [3H]-NMS binding remaining (0 min = 100), MEAN ([3]; 10uM Atr + 100uM Xano, 30 min): 106.159 | [3H]-NMS binding remaining (0 min = 100), MEAN ([3]; 10uM Atr + 100uM Xano, 90 min): 76.4682 | [3H]-NMS binding remaining (0 min = 100), MEAN ([3]; 10uM Atr + 100uM Xano, 120 min): 67.0445 | [3H]-NMS binding remaining (0 min = 100), MEAN ([3]; 10uM Atr + 100uM Xano, 210 min): 42.1563 | [3H]-NMS binding remaining (0 min = 100), MEAN ([4]; 10uM Atr + 10 μM Xano, 30 min): 87.1248 | [3H]-NMS binding remaining (0 min = 100), MEAN ([4]; 10uM Atr + 10 μM Xano, 90 min): 63.7927 | [3H]-NMS binding remaining (0 min = 100), MEAN ([4]; 10uM Atr + 10 μM Xano, 180 min): 32.9493 | [3H]-NMS binding remaining (0 min = 100), MEAN ([4]; 10uM Atr + 10 μM Xano, 300 min): 16.1247 | [3H]-NMS binding remaining (0 min = 100), MEAN ([4]; 10uM Atr + 30 μM Xano, 30 min): 96.6093 | [3H]-NMS binding remaining (0 min = 100), MEAN ([4]; 10uM Atr + 30 μM Xano, 90 min): 68.5782 | [3H]-NMS binding remaining (0 min = 100), MEAN ([4]; 10uM Atr + 30 μM Xano, 180 min): 42.1853 | [3H]-NMS binding remaining (0 min = 100), MEAN ([4]; 10uM Atr + 30 μM Xano, 300 min): 23.6351 | [3H]-NMS binding remaining (0 min = 100), MEAN ([4]; 10uM Atr + 100uM Xano, 30 min): 97.9496 | [3H]-NMS binding remaining (0 min = 100), MEAN ([4]; 10uM Atr + 100uM Xano, 60 min): 79.6399 | [3H]-NMS binding remaining (0 min = 100), MEAN ([4]; 10uM Atr + 100uM Xano, 180 min): 54.7449 | [3H]-NMS binding remaining (0 min = 100), MEAN ([4]; 10uM Atr + 100uM Xano, 300 min): 34.2485 | effect on [3H]-NMS dissociation (in words) ([4]; wild-type M4 mAChR, increasing concentrations of xanomeline, saturating concentration of iperoxo): progressively slowed
